Source: US10144715B2, “Piperazine derivatives as liver X receptor modulators” (priority 2014, dated 2018)
Where two headings read alike, the source gives them in different places.

Assays:
[1] = molecular target: Gal4 DNA binding domain fused to the LBD of LXRα in HEK293 cells (Homo sapiens (Human), UniProt Q13133); experiment: LXR luciferase transcriptional reporter gene assay, agonist mode, LXRα; format: cell-based; settings: for EC50: read-out: Cell LXRα EC50
LXR β LBD protein = LXR β LBD protein (Homo sapiens (Human), UniProt P55055); experiment: biochemical; format: binding
Chain of LXR β LBD protein (P55055 222-460 limits assumed): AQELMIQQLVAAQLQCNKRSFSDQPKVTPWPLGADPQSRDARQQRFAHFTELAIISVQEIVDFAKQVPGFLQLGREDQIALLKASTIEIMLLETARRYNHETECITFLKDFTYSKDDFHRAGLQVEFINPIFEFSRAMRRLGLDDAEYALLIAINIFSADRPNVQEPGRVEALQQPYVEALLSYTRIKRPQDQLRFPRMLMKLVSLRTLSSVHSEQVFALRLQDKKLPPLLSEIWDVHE

LXR α LBD protein = LXR α LBD protein (Homo sapiens (Human), UniProt Q13133); experiment: LXR α radioligand binding assay (SPA, competition with [3H]TO901317); settings: read-out: LXRα Binding Ki
Chain of LXR α LBD protein (Q13133 209-447): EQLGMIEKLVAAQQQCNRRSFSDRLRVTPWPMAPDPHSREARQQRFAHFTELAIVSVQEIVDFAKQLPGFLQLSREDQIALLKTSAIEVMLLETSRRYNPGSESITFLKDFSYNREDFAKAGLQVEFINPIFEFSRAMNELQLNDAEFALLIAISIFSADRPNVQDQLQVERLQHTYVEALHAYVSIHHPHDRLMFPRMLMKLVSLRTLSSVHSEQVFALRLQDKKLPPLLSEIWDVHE

[2] = molecular target: Gal4 DNA binding domain fused to the LBD of LXRβ in HEK293 cells (Homo sapiens (Human), UniProt P55055); experiment: cell-based
Chain of Gal4 DNA binding domain fused to the LBD of LXRβ in HEK293 cells (P55055 222-460 limits assumed): as the sequence (P55055 222-460 limits assumed) above

[3] = Biological Test Example 2, agonist mode
[4] = Biological Test Example 1, read-out: LXRβ Binding Ki
[5] = Biological Test Example 2, agonist mode, read-out: Cell LXRβ EC50

Chain of Gal4 DNA binding domain fused to the LBD of LXRα in HEK293 cells (Q13133 209-447): as the sequence (Q13133 209-447) above

| Compound | Cell LXRα efficacy [1] | EC50 ([1]; agonist mode) [nM] | EC50 [2] [nM] | Cell LXRβ efficacy ([2]; agonist mode) | Ki (LXR β LBD protein; read-out: LXRβ Binding Ki) [nM] | EC50 [1] [nM] | other results |
| --- | --- | --- | --- | --- | --- | --- | --- |
| CO[C@@H](C)[C@@H]1CN(c2ccc(CO)c(S(C)(=O)=O)c2)CCN1c1ncc(CO)c(C(F)(F)F)n1 (single isomer, unassigned) [11-4] | 3106 (30) % | 3110 | 347 | 347 (24) % | – | – | Ki (LXR β LBD protein): 159 nM; Ki (LXR α LBD protein): 1890 nM |
| CO[C@H](C)[C@@H]1CN(c2ccc(CO)c(S(C)(=O)=O)c2)CCN1c1ncc(CO)c(C(F)(F)F)n1 (single isomer, unassigned) [11-5] | 4667 (21) % | 4670 | 363 | 363 (16) % | – | – | Ki (LXR β LBD protein): 414 nM; Ki (LXR α LBD protein): > 3330 nM |
| COC(=O)c1cnc(N2CCN(c3ccc(F)c(S(C)(=O)=O)c3)C[C@H]2c2ccc(F)cc2)nc1C(F)(F)F [9-9, methyl (R)-2-(4-(4-fluoro-3-(methylsulfonyl)phenyl)-2-(4-fluorophenyl)piperazin-1-yl)-4-(trifluoromethyl)pyrimidine-5-carboxylate] | 3041 (6) % | 3040 | 780 | 780 (13) % | 298 | – | – |
| Cc1nc(N2CCN(c3ccc(F)c(S(C)(=O)=O)c3)CC2CC(F)(F)F)ncc1C(C)(C)O (centres unmarked) [10-6, 2-(2-(4-(4-fluoro-3-(methylsulfonyl)phenyl)-2-(2,2,2-trifluoroethyl)piperazin-1-yl)-4-methylpyrimidin-5-yl)propan-2-ol] | 9158 (22) % | 9160 | 1310 | – | 862 | – | – |
| CC(C)(O)c1cc(CN2CCN(c3cccc(S(C)(=O)=O)c3)C[C@@H]2c2ccccc2)ccc1C(F)(F)F [10-13, (S)-2-(5-((4-(3-(methylsulfonyl)phenyl)-2-phenylpiperazin-1-yl)methyl)-2-(trifluoromethyl)phenyl)propan-2-ol] | – | > 20000 | > 20000 | – | 226 | – | – |
| CNS(=O)(=O)c1cc(N2CCN(c3ncc(C(C)=O)c(C(F)(F)F)n3)[C@H](C(C)C)C2)ccc1F [13-2, (R)-5-(4-(5-acetyl-4-(trifluoromethyl)pyrimidin-2-yl)-3-isopropylpiperazin-1-yl)-2-fluoro-N-methylbenzenesulfonamide] | 290 (73) % | – | 33 | 33 (58) % | – | 290 | Ki (LXR β LBD protein): 3 nM |
| CC(=O)c1cnc(N2CCN(c3ccc(F)c(S(C)(=O)=O)c3)C[C@H]2c2ccc(F)cc2)nc1C(F)(F)F [13-3, (R)-1-(2-(4-(4-fluoro-3-(methylsulfonyl)phenyl)-2-(4-fluorophenyl)piperazin-1-yl)-4-(trifluoromethyl)pyrimidin-5-yl)ethan-1-one] | 2458 (21) % | – | 360 | 360 (18) % | 88 | 2460 | – |
| C=C(C)c1cnc(N2CCN(c3ccc(CO)c(S(C)(=O)=O)c3)C[C@H]2C(C)C)nc1C(F)(F)F [14-2, (R)-(4-(3-isopropyl-4-(5-(prop-1-en-2-yl)-4-(trifluoromethyl)pyrimidin-2-yl)piperazin-1-yl)-2-(methylsulfonyl)phenyl)methanol] | 186 (63) % | 186 | 28 | 28 (42) % | 1 | – | – |
| CSCc1cnc(N2CCN(c3ccc(F)c(S(C)(=O)=O)c3)C[C@H]2C(C)C)nc1C(F)(F)F [15-8, (R)-2-(4-(4-fluoro-3-(methylsulfonyl)phenyl)-2-isopropylpiperazin-1-yl)-5-((methylthio)methyl)-4-(trifluoromethyl)pyrimidine] | 219 (44) % | 219 | 34 | 34 (35) % | 1 | – | – |
| CC(C)[C@@H]1CN(c2ccc(F)c(S(C)(=O)=O)c2)CCN1c1ncc(C(=O)N2CC(N)C2)c(C(F)(F)F)n1 [17-4, (R)-(3-aminoazetidin-1-yl)(2-(4-(4-fluoro-3-(methylsulfonyl)phenyl)-2-isopropylpiperazin-1-yl)-4-(trifluoromethyl)pyrimidin-5-yl)methanone] | – | > 20000 | 833 | 833 (6) % | 512 | – | – |
| CC(C)[C@@H]1CN(c2ccc(F)c(S(C)(=O)=O)c2)CCN1c1ncc(C(=O)N2CC(O)C2)c(C(F)(F)F)n1 [17-5, (R)-(2-(4-(4-fluoro-3-(methylsulfonyl)phenyl)-2-isopropylpiperazin-1-yl)-4-(trifluoromethyl)pyrimidin-5-yl)(3-hydroxyazetidin-1-yl)methanone] | – | > 20000 | > 20000 | – | 396 | – | – |
| CC(C)[C@@H]1CN(c2ccc(F)c(S(C)(=O)=O)c2)CCN1c1ncc(C(=O)NC2CN(C(=O)OC(C)(C)C)C2)c(C(F)(F)F)n1 [17-20, tert-butyl (R)-3-(2-(4-(4-fluoro-3-(methylsulfonyl)phenyl)-2-isopropylpiperazin-1-yl)-4-(trifluoromethyl)pyrimidine-5-carboxamido)azetidine-1-carboxylate] | – | > 20000 | > 20000 | – | 330 | – | – |
| CC(C)[C@@H]1CN(c2ccc(F)c(S(C)(=O)=O)c2)CCN1c1ncc(C(=O)N2CC(NC(=O)OC(C)(C)C)C2)c(C(F)(F)F)n1 [17-21, tert-butyl (R)-(1-(2-(4-(4-fluoro-3-(methylsulfonyl)phenyl)-2-isopropylpiperazin-1-yl)-4-(trifluoromethyl)pyrimidine-5-carbonyl)azetidin-3-yl)carbamate] | – | > 20000 | > 20000 | – | 111 | – | – |
| CON(C)C(=O)c1cnc(N2CCN(c3ccc(F)c(S(C)(=O)=O)c3)C[C@H]2c2ccc(F)cc2)nc1C(F)(F)F [17-32, (R)-2-(4-(4-fluoro-3-(methylsulfonyl)phenyl)-2-(4-fluorophenyl)piperazin-1-yl)-N-methoxy-N-methyl-4-(trifluoromethyl)pyrimidine-5-carboxamide] | – | > 20000 | > 20000 | – | – | – | Ki (LXR β LBD protein): 435 nM |
| C[C@@H](c1ccc(C(F)(F)F)cc1)N1CCN(c2cccc(S(C)(=O)=O)c2)C[C@@H]1c1ccccc1 [46-16, (S)-4-(3-(methylsulfonyl)phenyl)-2-phenyl-1-((S)-1-(4-(trifluoromethyl)phenyl)ethyl)piperazine] | – | – | > 20000 | – | – | > 20000 | Ki (LXR β LBD protein): 503 nM |
| COC(=O)c1cc(CN2CCN(c3cccc(S(C)(=O)=O)c3)CC2c2ccccc2)ccc1C(F)(F)F (centres unmarked) [46-36, methyl 5-((4-(3-(methylsulfonyl)phenyl)-2-phenylpiperazin-1-yl)methyl)-2-(trifluoromethyl)benzoate] | 11251 (20) % | 11300 | 4760 | 4759 (14) % | 244 | – | – |
| CS(=O)(=O)c1cccc(N2CCN(Cc3ccc(C(F)(F)F)c(Br)c3)C(c3ccccc3)C2)c1 (centres unmarked) [46-37, 1-(3-bromo-4-(trifluoromethyl)benzyl)-4-(3-(methylsulfonyl)phenyl)-2-phenylpiperazine] | 3451 (52) % | 3450 | 1190 | 1194 (55) % | 30 | – | – |
| CS(=O)(=O)c1cccc(N2CCN(CC3CCN(CC(F)(F)F)CC3)[C@H](c3ccccc3Cl)C2)c1 [48-56, (R)-2-(2-chlorophenyl)-4-(3-(methylsulfonyl)phenyl)-1-((1-(2,2,2-trifluoroethyl)piperidin-4-yl)methyl)piperazine] | – | – | 4010 | – | 1670 | > 20000 | Cell LXRβ efficacy [2]: 4014 (16) % |
| CS(=O)(=O)c1cccc(N2CCN(CC3(F)CCN(CC(F)(F)F)CC3)[C@@H](c3ccc(F)cc3)C2)c1 [48-57, (S)-1-((4-fluoro-1-(2,2,2-trifluoroethyl)piperidin-4-yl)methyl)-2-(4-fluorophenyl)-4-(3-(methylsulfonyl)phenyl)piperazine] | 4500 (37) % | – | 1270 | – | – | – | EC50 [1, 3]: 4500 nM; Ki (LXR β LBD protein; [4]): 492 nM; Cell LXRβ efficacy [2, 3]: 1272 (13) % |
| CS(=O)(=O)c1cccc(N2CCN(C[C@H]3CC[C@]4(CC3)CC4(F)F)[C@H](c3ccccc3)C2)c1 [48-72, (R)-1-(((3R,6r)-1,1-difluorospiro[2.5]octan-6-yl)methyl)-4-(3-(methylsulfonyl)phenyl)-2-phenylpiperazine] | 7222 (11) % | – | – | – | – | 7220 | Ki (LXR β LBD protein; [4]): 825 nM; Cell LXRβ efficacy [2, 3]: 31%; EC50 [2, 5]: 2880 nM |
| CS(=O)(=O)c1cccc(N2CCN(C[C@@H]3C[C@H]4CC[C@@H](C3)N4CC(F)(F)F)[C@H](c3ccccc3)C2)c1 [48-75, (1R,3s,5S)-3-(((R)-4-(3-(methylsulfonyl)phenyl)-2-phenylpiperazin-1-yl)methyl)-8-(2,2,2-trifluoroethyl)-8-azabicyclo[3.2.1]octane] | – | – | – | – | – | > 20000 | Ki (LXR β LBD protein; [4]): 940 nM; Cell LXRβ efficacy [2, 3]: 21%; EC50 [2, 5]: 2400 nM |
| CS(=O)(=O)c1cccc(N2CCN(C[C@@H]3C[C@H]4CC[C@@H](C3)N4CC(F)(F)F)[C@@H](c3ccccc3)C2)c1 [48-76, (1R,3s,5S)-3-(((S)-4-(3-(methylsulfonyl)phenyl)-2-phenylpiperazin-1-yl)methyl)-8-(2,2,2-trifluoroethyl)-8-azabicyclo[3.2.1]octane] | 1394 (54) % | – | – | – | – | 1390 | Ki (LXR β LBD protein; [4]): 67 nM; Cell LXRβ efficacy [2, 3]: 27%; EC50 [2, 5]: 374 nM |
| Cc1nc(N2CCN(c3ccc(F)c(S(C)(=O)=O)c3)C[C@H]2C(C)C)ncc1C(F)(F)F [Cpd No 37-1, (R)-2-(4-(4-fluoro-3-(methylsulfonyl)phenyl)-2-isopropylpiperazin-1-yl)-4-methyl-5-(trifluoromethyl)pyrimidine] | 262 (91) % | – | 41 | – | 3 | 262 | Cell LXRβ efficacy [2]: 41 (81) % |
